The target of one experiment is PDGFR-β (Homo sapiens, UniProt P09619). The experiment in a line: In vitro kinase assay ([γ-33P]-ATP). The class given is biochemical. Particulars: ATP at apparent ATP-Km of the kinase. The method, then:
(§1) To determine the inhibitory activity of compounds, in vitro kinase assays were performed on respective enzymes purified from Sf9 insect cells or E. coli as recombinant GST-fusion proteins or His-tagged proteins.

For the next experiment, the target named is PDGFR-α (Homo sapiens, UniProt P16234). The experiment is described as follows: In vitro kinase assay ([γ-33P]-ATP). Particulars: ATP at apparent ATP-Km of the kinase. The class given is biochemical. As for the experimental part: as §1
A further experiment addresses CDK8 (Homo sapiens, UniProt P49336). The experiment is described as follows: In vitro kinase assay ([γ-33P]-ATP). The class given is biochemical. Particulars: ATP at apparent ATP-Km of the kinase. The method, then:
as §1

In a further experiment the target is CDK19 (Homo sapiens, UniProt Q9BWU1). The experiment in a line: In vitro kinase assay ([γ-33P]-ATP). Particulars: ATP at apparent ATP-Km of the kinase. In kind it is biochemical. The method, then: as §1
In another experiment the target is T1, Flt3 (Homo sapiens, UniProt P36888).
T1 sequence (P36888 27-993): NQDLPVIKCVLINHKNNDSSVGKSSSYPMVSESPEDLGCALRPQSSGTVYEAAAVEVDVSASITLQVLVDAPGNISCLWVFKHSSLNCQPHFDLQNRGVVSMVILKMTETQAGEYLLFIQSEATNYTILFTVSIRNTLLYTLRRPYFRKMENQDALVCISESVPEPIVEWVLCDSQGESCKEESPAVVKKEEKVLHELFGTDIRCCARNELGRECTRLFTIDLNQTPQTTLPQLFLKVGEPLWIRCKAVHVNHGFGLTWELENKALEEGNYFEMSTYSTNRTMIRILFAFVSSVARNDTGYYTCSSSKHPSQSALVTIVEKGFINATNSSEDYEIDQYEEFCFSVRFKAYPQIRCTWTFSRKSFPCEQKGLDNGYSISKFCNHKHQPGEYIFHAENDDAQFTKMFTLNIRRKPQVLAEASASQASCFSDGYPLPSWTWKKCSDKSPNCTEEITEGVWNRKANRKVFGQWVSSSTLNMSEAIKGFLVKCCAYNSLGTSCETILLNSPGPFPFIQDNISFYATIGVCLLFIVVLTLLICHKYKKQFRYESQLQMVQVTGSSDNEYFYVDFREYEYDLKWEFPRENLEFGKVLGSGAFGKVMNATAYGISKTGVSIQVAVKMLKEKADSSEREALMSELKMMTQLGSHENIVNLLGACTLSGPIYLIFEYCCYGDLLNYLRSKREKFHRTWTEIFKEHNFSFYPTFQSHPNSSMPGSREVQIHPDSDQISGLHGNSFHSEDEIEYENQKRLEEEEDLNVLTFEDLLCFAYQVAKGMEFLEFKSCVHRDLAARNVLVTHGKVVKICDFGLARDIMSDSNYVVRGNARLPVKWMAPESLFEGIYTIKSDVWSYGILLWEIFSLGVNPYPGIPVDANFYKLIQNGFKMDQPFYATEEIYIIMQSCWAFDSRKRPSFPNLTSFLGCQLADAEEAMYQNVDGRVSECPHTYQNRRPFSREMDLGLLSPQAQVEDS
The experiment in a line: In vitro kinase assay ([γ-33P]-ATP). The class given is biochemical. Particulars: ATP at apparent ATP-Km of the kinase. The method, then:
as §1

In another experiment the target is VEGFR-2 (Homo sapiens, UniProt P35968). The experiment in a line: In vitro kinase assay ([γ-33P]-ATP). In kind it is biochemical. Particulars: ATP at apparent ATP-Km of the kinase. As for the experimental part: as §1
Experiment [1] has as its system BA/F3 cells expressing PDGFR. The experiment in a line: Cell viability by MTS assay (MTS Assay 1). The class given is cell-based. Particulars: for IC50: Mus musculus, BaF3, read-out: MTS Assay 1: concentration of compound required to reduce cell viability to 50%; for Activity compared to the imatinib and quizartinib controls (cell viability): MTS assay, FIGS. 2 and 3. As for the experimental part:
FIG. 2 illustrates the effect of the compounds of Examples 1 to 4 on Ba/F3 cells expressing PDGFR. Results for imatinib and quizartinib are provided as positive controls.
(§2) The effect of the compounds on cell viability were determined using MTS assay. MTS Cell Proliferation Assay Kit is a colorimetric method for sensitive quantification of viable cells in proliferation and cytotoxicity assay. The method is based on the reduction of MTS tetrazolium compound by viable cells to generate a colored formazan product that is soluble in cell culture media. BA/F3 cells expressing the receptor tyrosine kinase (either PDGFR [MTS Assay 1] or Flt3 [MTS Assay 2]) were cultured in standard culture conditions in a 96-well microtiter plate (final volume of 200 μl/well) in the absence or presence of the compound to be tested and were incubated for 20-48 hrs. MTS Reagent (20 μl/well) was added into each well & incubated for 0.5-4 hours at 37° C. in standard culture conditions. Absorbance at 490 nm was recorded using a plate reader.
(§3) Results are shown in FIGS. 2 and 3, and Table 2 (where IC50 indicates the concentration of compound required to reduce cell viability to 50%).
(§4) For the MTS Assay, the result indicates the concentration of compound required to reduce cell viability to 50%.
In general terms: Formazan colour is commonly taken as a measure of viable cells.

The target in experiment [2] is T2, BA/F3 cells expressing Flt3 (Homo sapiens, UniProt P36888, cells depend on it, form not given).
T2 sequence (P36888 1-993): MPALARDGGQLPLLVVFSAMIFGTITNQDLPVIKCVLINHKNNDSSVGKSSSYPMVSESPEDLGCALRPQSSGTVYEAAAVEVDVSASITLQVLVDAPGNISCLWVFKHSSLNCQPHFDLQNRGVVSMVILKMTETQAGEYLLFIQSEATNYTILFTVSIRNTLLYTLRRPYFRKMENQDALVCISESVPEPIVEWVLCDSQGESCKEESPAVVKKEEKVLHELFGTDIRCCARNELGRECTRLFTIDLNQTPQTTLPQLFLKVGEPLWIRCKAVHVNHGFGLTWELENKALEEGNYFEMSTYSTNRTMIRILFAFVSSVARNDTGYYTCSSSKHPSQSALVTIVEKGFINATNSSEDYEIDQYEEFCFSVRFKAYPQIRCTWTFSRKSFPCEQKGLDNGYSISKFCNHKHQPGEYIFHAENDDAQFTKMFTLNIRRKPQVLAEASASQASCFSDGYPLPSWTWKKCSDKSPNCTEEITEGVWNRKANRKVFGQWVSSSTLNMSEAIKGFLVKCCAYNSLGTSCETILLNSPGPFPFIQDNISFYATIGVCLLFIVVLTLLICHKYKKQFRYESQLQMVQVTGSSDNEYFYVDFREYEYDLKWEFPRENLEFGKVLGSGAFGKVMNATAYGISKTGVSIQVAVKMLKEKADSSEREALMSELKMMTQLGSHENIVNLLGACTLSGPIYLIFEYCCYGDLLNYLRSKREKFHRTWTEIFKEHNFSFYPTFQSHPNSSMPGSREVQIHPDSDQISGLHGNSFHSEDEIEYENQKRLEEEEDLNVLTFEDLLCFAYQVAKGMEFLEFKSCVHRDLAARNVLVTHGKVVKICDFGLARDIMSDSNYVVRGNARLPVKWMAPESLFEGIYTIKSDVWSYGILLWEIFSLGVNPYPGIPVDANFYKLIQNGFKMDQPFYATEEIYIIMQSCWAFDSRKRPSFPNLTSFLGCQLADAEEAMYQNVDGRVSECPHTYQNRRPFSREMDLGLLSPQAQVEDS
The experiment is described as follows: Cell viability by MTS assay (MTS Assay 2). Particulars: BA/F3 cells expressing Flt3, 20-48 hrs; symbol after the slash; read-out: MTS Assay 2: concentration of compound required to reduce cell viability to 50%. In kind it is cell-based. The method, then: FIG. 3 illustrates the effect of the compounds of Examples 5 to 7 on Ba/F3 cells expressing Flt3 kinase. Results for imatinib (negative control) and quizartinib (positive control) are also provided.
as §2, §3, §4

The subject of experiment [3] is PDGFRβ signaling (PDGFRβ autophosphorylation, Shp2 phosphorylation) in HEK293 cells expressing human PDGFR. The experiment in a line: Western blot of PDGFRβ signaling in HEK293 cell line model. Particulars: 20 ng/ml PDGF, FIG. 1. The class given is cell-based. The method, then: FIG. 1 represents Western-blot analysis result of the compounds of Examples 1 and 2 in relation to inhibition of PDGFRβ and p-SHP2 signalling in HEK293 cells expressing PDGFRβ.
Human Embryonic kidney cells (HEK293) were constructed to express human PDGFRWT under the control of constitutive CMV promoter. Cells were grown in the presence of 20 ng/ml PDGF (the ligand for the PDGFRβ) to activate the PDGFRβ. Different concentrations of the compounds of Examples 1 and 2 were added to study their effect on the PDGFRβ-mediated signaling. Autophosphorylation of PDGFRβ and Shp2 phosphorylation were monitored by Western blotting and were used as the markers for PDGFRβ signaling. β-Actin was used as an internal control.

VEGFR-2, sequence (P35968 20-1356): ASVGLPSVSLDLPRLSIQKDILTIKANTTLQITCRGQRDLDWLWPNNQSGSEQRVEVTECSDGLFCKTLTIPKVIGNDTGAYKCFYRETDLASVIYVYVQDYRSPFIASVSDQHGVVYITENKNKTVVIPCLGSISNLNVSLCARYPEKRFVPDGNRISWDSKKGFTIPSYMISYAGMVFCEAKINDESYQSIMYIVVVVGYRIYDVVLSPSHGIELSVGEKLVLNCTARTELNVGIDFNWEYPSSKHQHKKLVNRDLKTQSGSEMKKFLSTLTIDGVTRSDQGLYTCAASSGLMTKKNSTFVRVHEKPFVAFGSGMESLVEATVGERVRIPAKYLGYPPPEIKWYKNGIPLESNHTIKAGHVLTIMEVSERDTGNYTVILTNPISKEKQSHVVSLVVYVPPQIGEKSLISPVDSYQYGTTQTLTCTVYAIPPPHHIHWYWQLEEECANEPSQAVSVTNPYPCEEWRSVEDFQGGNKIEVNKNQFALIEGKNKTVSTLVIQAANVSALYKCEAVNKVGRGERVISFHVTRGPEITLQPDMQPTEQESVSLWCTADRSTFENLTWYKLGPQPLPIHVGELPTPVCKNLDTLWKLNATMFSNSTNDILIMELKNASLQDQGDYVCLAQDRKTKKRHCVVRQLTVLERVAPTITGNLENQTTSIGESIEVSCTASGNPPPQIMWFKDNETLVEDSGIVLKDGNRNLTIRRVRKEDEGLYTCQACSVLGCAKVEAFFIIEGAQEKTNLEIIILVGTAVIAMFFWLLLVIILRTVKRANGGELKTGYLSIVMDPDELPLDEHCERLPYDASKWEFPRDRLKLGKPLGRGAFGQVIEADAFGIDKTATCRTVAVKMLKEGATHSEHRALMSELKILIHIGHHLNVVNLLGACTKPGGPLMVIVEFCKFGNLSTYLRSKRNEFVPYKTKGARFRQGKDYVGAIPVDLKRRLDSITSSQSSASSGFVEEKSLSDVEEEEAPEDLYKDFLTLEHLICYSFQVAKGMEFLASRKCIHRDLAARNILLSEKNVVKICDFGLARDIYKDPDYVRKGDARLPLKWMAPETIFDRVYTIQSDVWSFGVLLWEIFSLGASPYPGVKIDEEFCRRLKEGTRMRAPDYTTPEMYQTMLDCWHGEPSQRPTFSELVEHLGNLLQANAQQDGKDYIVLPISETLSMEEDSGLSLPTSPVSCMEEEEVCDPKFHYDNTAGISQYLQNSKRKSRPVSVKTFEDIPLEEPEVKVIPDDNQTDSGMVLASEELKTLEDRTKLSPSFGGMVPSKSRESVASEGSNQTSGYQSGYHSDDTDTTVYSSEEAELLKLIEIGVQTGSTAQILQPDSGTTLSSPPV
PDGFR-α, sequence (P16234 24-1089): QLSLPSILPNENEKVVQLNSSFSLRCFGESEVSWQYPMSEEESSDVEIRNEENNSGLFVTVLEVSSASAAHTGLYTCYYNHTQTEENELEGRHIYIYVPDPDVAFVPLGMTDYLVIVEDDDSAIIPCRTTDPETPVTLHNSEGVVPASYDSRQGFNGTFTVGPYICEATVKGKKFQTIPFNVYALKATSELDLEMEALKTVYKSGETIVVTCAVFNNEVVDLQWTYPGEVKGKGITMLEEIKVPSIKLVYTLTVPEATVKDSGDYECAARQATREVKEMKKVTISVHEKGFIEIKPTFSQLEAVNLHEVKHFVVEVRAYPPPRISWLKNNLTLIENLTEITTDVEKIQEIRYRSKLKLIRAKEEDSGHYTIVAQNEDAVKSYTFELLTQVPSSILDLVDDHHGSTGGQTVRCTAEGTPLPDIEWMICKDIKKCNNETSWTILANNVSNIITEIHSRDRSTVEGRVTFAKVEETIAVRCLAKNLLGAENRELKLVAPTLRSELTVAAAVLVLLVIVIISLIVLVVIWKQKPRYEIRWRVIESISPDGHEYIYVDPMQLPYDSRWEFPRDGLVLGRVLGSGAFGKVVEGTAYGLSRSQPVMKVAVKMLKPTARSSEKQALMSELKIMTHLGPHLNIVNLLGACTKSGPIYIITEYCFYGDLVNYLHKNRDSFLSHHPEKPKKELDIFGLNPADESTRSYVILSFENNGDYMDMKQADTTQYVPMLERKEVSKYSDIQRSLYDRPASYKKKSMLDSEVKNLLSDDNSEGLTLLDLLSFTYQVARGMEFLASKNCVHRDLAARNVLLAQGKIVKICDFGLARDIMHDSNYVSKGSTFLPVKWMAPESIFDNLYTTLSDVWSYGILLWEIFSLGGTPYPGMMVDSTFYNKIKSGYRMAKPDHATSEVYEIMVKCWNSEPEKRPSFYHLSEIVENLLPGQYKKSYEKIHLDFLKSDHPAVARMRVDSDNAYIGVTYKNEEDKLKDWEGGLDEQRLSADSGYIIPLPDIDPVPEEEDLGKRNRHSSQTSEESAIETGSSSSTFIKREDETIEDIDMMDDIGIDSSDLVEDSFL
CDK19, sequence (Q9BWU1 whole entry): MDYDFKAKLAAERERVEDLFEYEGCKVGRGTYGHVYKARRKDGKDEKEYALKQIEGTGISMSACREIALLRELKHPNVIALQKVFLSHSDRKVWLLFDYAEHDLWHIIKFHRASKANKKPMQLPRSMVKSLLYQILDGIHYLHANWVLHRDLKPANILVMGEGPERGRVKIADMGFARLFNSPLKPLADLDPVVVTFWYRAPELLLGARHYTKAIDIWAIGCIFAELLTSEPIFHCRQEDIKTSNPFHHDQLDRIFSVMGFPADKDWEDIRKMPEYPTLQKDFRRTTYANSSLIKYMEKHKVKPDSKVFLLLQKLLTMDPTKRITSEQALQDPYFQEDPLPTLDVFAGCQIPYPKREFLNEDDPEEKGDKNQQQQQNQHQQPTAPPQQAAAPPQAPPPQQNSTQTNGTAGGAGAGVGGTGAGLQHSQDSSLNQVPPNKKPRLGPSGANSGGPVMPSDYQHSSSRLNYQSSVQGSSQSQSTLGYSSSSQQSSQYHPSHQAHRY
CDK19, sequence (P24863 whole entry partner): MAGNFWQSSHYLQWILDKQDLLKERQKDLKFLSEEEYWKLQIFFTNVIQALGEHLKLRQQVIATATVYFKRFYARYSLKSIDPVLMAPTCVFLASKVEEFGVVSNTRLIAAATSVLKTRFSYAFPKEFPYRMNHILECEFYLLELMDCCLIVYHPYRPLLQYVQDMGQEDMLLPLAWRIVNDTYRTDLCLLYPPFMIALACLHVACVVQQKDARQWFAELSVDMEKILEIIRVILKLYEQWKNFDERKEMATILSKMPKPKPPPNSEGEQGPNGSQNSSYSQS
CDK8, sequence (P49336 whole entry): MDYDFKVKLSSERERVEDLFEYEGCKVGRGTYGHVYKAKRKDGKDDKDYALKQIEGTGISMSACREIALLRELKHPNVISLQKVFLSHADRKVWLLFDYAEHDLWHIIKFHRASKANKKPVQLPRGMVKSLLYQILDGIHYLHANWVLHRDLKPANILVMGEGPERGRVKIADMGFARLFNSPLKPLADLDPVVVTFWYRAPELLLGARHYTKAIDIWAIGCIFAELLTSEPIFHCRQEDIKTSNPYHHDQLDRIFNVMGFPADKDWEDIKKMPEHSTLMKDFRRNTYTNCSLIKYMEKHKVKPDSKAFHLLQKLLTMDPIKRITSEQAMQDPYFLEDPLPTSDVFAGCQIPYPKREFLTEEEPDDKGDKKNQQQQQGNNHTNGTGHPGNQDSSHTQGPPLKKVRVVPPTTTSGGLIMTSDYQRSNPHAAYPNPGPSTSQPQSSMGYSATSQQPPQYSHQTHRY
CDK8, sequence (P24863 whole entry partner): as the sequence (P24863 whole entry partner) above
PDGFR-β, sequence (P09619 33-1106): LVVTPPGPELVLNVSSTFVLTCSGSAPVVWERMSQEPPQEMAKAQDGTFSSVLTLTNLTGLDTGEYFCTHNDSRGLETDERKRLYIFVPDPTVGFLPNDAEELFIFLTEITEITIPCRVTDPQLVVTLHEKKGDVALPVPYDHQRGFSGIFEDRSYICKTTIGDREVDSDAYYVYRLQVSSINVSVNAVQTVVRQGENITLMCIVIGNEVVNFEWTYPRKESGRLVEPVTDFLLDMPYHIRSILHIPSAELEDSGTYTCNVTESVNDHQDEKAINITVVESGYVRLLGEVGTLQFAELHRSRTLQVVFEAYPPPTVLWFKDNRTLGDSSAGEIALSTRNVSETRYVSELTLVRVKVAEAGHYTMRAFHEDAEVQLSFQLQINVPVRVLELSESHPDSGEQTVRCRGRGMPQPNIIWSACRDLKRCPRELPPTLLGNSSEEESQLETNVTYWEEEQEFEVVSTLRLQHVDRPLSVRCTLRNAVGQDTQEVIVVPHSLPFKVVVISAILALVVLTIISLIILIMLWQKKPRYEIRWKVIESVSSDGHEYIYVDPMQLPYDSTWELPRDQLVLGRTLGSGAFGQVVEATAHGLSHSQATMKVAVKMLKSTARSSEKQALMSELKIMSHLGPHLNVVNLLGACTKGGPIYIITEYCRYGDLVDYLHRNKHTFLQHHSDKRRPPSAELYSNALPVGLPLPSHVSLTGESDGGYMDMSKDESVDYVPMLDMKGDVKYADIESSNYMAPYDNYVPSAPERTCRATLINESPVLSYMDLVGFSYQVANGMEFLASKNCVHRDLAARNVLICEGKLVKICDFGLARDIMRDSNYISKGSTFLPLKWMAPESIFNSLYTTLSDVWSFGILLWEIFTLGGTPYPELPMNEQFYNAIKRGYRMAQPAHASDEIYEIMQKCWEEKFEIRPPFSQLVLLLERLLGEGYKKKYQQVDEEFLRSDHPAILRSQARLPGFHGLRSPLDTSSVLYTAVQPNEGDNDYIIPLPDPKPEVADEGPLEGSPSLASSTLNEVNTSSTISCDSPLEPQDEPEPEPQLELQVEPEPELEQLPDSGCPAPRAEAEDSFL

Regarding `Cc1cnc(NC(=O)COc2ccc(-c3cnc4ccccn34)cn2)cc1C(F)(F)F` [Example 8], the IC50 at PDGFR-β, at PDGFR-α, on CDK8, on CDK19, at Flt3 and at VEGFR-2 was under 500 nM in each case. Further, in experiment [1], the IC50 was under 500 nM.
`Cn1nc(NC(=O)COc2ccc(-c3cnc4ccccn34)cn2)cc1C(F)(F)F` [Example 1]: the IC50 in [2] was under 500 nM. The “Activity compared to the imatinib and quizartinib controls (cell viability)” value in experiment [1] is “improved activity”. In addition, the “Inhibition of PDGFRβ signaling (PDGFRβ autophosphorylation and Shp2 phosphorylation, Western blot)” value in experiment [3] is listed as “able to inhibit PDGFRβ signaling”.
Consider `Cc1ccc(NC(=O)COc2ccc(-c3cnc4cnccn34)c(F)n2)cc1C(F)(F)F` [Example 7], for which, in experiment [2], the IC50 was under 500 nM.
As to `Cn1nc(NC(=O)C2(C(=O)Nc3ccc(-c4cnc5cnccn45)cc3)CC2)cc1C(F)(F)F` [Example 21], the IC50 was over 5000 nM at PDGFR-β; over 5000 nM at PDGFR-α; under 500 nM on CDK8; under 500 nM at CDK19; over 5000 nM at Flt3; over 5000 nM on VEGFR-2.
As to `Cn1nc(NC(=O)C2(C(=O)Nc3ccc(-c4cnc5cnccn45)c(F)c3)CC2)cc1C(F)(F)F` [Example 22], the IC50 was over 5000 nM on PDGFR-β; over 5000 nM on PDGFR-α; under 500 nM on CDK8; under 500 nM at CDK19; over 5000 nM on Flt3; 500 to 5000 nM on VEGFR-2.
For `Cn1nc(NC(=O)COc2ccc(-c3cnc4cnccn34)cn2)cc1C(F)(F)F` [Example 9], the IC50 in [1] is under 500 nM.
In the case of `Cc1cnc(NC(=O)COc2ccc(-c3cnc4cnccn34)cn2)cc1C(F)(F)F` [Example 3], the IC50 at PDGFR-β, on PDGFR-α, on CDK8, on CDK19, on Flt3 and on VEGFR-2 was under 500 nM each time. Moreover, the IC50 in [1] was under 500 nM. The “Activity compared to the imatinib and quizartinib controls (cell viability)” value in experiment [1] is on record as “improved activity”.
On to `Cc1ccc(NC(=O)CNc2ccc(-c3cnc4cnccn34)cc2)cc1C(F)(F)F` [Example 15], for which the IC50 in experiment [2] is under 500 nM.
As for `Cc1ccc(NC(=O)COc2ccc(-c3cnc4ccccn34)cn2)cc1C(F)(F)F` [Example 2], the IC50 (on Flt3; in experiment [1]) was under 500 nM in each case. For the same compound, the “Inhibition of PDGFRβ signaling (PDGFRβ autophosphorylation and Shp2 phosphorylation, Western blot)” value in experiment [3] was “able to inhibit PDGFRβ signaling”.
In the case of `O=C(Nc1ccc(-c2cnc3cnccn23)cc1)C1(C(=O)Nc2cc(C(F)(F)F)c(Cl)cn2)CC1` [Example 20], the IC50 on PDGFR-β is over 5000 nM; on PDGFR-α, over 5000 nM; on CDK8, under 500 nM; at CDK19, under 500 nM; on Flt3 it was over 5000 nM; at VEGFR-2 it was over 5000 nM.
